# Laboratory results: patent US9181244B1, “Substituted pyrido[2,3-c]pyridazin-4(1H)-ones as tumor necrosis factor alpha and phosphodiesterase 4 inhibitors” (Xuanzhu Pharma Co., Ltd., priority 2014, dated 2015)
# What was measured:
# PDE-4B1 = PDE-4B1 (Homo sapiens, UniProt Q07343); experiment: Lance cAMP assay, PDE-4B1 inhibition; format: biochemical; conditions: PDE4B1 0.18 nM, 20 nM cAMP, 90 min room temperature
# Method: (§1) Experimental Methods: Lance cAMP Assay:
# (§2) Test samples were precisely weighed, added to and dissolved in DMSO, mixed sufficiently so as to reach 100 μM. The above mother solution was then diluted with DMSO to reach 1 μM, and then diluted 4 times to reach 0.0038 nM.
# (§3) To 384 well plate were added 2.5 μl of substrate 20 nM cAMP and 50 nl of compound DMSO solution, then added 2.5 μl of PDE enzyme (PDE4B1 0.18 nM, PDE4D3 0.024 nM) buffer solution (1×HBSS, 5 mM Hepes pH 7.4, 3 mM MgCl2, 0.1% BSA). After incubation at room temperature for 90 min, 5 μl of Alexa Fluor® 647-anti cAMP antibody was added and incubated for 30 min, 10 μl of detection reagent was added and incubated for 60 min, then its LANCE signal was detected under 665 nm, inhibition rate was calculated by the following formulation, and IC50 values were calculated from inhibition rate using XLfit. Inhibition rate=[signal value (MAX)−signl value (sample)]×100/[signal value (MAX)−signal value (MIN)]
# (§4) Notation: MAX: blank control without enzyme; MIN: blank control without compound.
# PDE-4D3 = PDE-4D3 (Homo sapiens, UniProt Q08499); experiment: Lance cAMP assay, PDE-4D3 inhibition; format: biochemical; conditions: PDE4D3 0.024 nM, 20 nM cAMP, 90 min room temperature
# Chain of PDE-4D3 (Q08499 1-673 isoform Q08499-2): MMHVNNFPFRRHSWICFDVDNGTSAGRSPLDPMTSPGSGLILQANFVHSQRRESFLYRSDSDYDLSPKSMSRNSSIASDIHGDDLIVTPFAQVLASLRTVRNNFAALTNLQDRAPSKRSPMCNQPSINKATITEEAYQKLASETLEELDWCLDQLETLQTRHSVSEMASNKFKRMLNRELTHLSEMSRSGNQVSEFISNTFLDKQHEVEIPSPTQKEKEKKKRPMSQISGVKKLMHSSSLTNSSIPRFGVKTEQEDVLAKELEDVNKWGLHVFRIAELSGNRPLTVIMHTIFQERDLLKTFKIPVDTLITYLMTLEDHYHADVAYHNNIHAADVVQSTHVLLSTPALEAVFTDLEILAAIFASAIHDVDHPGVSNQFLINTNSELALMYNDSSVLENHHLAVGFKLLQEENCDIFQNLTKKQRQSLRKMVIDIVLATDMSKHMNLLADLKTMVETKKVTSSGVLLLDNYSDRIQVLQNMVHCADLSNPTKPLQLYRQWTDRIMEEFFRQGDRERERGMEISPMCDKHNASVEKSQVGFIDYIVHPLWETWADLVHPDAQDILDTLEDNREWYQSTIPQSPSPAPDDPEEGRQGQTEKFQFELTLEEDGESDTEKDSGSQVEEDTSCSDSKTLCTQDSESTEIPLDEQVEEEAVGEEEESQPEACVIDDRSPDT
# Method: as §1, §2, §3, §4
# PDE4D, PDE4B = conditions: some studies have shown; cited from earlier work
# TNF-α = experiment: Inhibition activity of TNF-α in whole blood test (LPS-stimulated, ELISA); format: cell-based; conditions: human whole blood diluted 1:1 with DPBS, lipopolysaccharide 100 ng/ml, overnight
# Method: Experiment 2: Measurement of Inhibition Activity of TNF-α in Whole Blood Test
# Fresh blood was collected from health human body using heparin sodium tubes. In Grade II Bio-safety Cabinet, whole blood was diluted in the ratio of 1:1 with DPBS (Dulbecco's Phosphate Buffered Saline). 100 μl of the diluted blood samples were taken and added to each of wells of a 96-well plate. 0.5 μl of compound solution was added to each well. The compound was formulated with dimethyl sulfoxide. The 96-well plate was placed in CO2 incubator and incubated for 30 min, then lipopolysaccharide in final concentration of 100 ng/ml was added, and incubated overnight. The 96-well plate was shaked for homogenization, and from each well 10 μl of solution was taken and transferred to another 96-well plate for ELISA to measure TNF-α content. The following formula was used to calculate inhibition rate, and the inhibition rate was used for calculation of IC50 value with XLfit. Inhibition rate=[signal value (MAX)−signal value (sample)]×100/[signal value (MAX)−signal value (MIN)]
# Notation: MAX represents blank control stimulated with only lipopolysaccharide; MIN represents positive control with 1 μmol/l of dexamethasone.
# Chain of PDE-4B1 (Q07343 whole entry, species assumed): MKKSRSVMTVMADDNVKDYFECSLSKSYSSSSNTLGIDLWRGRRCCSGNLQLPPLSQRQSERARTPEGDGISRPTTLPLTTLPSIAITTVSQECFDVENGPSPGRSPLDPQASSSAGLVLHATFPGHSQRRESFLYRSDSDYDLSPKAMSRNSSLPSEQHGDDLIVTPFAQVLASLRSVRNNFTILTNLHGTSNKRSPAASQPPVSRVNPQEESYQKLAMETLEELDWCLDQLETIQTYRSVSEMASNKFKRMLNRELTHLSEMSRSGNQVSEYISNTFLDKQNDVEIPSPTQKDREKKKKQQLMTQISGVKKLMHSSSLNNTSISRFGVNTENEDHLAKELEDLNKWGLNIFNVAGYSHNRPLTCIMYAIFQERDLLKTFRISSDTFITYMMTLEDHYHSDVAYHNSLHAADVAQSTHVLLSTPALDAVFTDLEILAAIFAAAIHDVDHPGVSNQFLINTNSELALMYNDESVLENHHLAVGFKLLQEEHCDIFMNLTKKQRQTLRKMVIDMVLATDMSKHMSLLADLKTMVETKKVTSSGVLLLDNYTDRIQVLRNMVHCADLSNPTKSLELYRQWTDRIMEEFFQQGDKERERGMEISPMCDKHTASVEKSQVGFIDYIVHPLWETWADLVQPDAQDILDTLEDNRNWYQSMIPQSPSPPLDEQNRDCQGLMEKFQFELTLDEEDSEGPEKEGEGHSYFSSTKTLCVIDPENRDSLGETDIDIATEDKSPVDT
Compound,IC50 (PDE-4B1) [nM],IC50 (PDE-4D3) [nM],IC50 (TNF-α) [nM],"activity to PDE4D compared with activity to PDE4B (PDE4D, PDE4B)"
Roflumilast,–,–,–,equivalent activity
"O=C(NC1CC1)c1nn(-c2cccc(Oc3cccnc3)c2)c2ncccc2c1=O [Compound 3, N-cyclopropyl-4-oxo-1-(3-(pyridin-3-yloxy)phenyl)-1,4-dihydropyridino[2,3-c]pyridazine-3-carboxamide]",305,358,–,–
"O=C(NC1CC1)c1nn(-c2cccc(Sc3cccnc3)c2)c2ncccc2c1=O [Compound 2, N-cyclopropyl-4-oxo-1-[3-(pyridin-3-ylthio)phenyl]-1,4-dihydropyridino[2,3-c]pyridazine-3-carboxamide]",161,250,–,–
"O=C(NC1CC1)c1nn(-c2cccc(C#Cc3cccnc3)c2)c2ncccc2c1=O [Compound 1, N-cyclopropyl-4-oxo-1-[3-(pyridin-3-ylethynyl)phenyl]-1,4-dihydropyridino[2,3-c]pyridazine-3-formamide]",2.68,2.19,51,–
Cilomilast,–,–,–,10 time

# Further lines, with some results ahead:
IC50 (PDE-4B1) [nM],IC50 (PDE-4D3) [nM],IC50 (TNF-α) [nM],Compound,"activity to PDE4D compared with activity to PDE4B (PDE4D, PDE4B)"
526,643,–,O=C(NC1CC1)c1nn(-c2cccc(Oc3ccc[n+]([O-])c3)c2)c2ncccc2c1=O [Nitrogen oxide of Compound 3],–
5.59,4.58,40.3,"O=C(NC1CC1)c1cn(-c2cccc(C#Cc3ccc[n+]([O-])c3)c2)c2ncccc2c1=O [MK-0873, reference compound]",–
–,–,3.3,"C[C@@H]1C[C@H]2[C@@H]3CCC4=CC(=O)C=C[C@]4(C)[C@@]3(F)[C@@H](O)C[C@]2(C)[C@@]1(O)C(=O)CO [Dexamethasone, reference compound]",–
28.1,18.9,109,"O=C(NC1CC1)c1nn(-c2cccc(C#Cc3ccc[n+]([O-])c3)c2)c2ncccc2c1=O [Nitrogen oxide of Compound 1, 3-[[3-[3-(cyclopropylcarbamoyl)-4-oxo-pyridino[2,3-c]pyridazine-1(4H)-yl]phenyl]ethynyl]pyridine-1-oxide]",–
